Results from patent publication US11980689B2 (AVALYN PHARMA INC., priority 2013, dated 2024).
Structures can show the parent of a compound that is named as a salt.

Legend:
[1] = target: T1, purified human neutrophil elastase (Homo sapiens, UniProt P08246); conditions: cited from earlier work
T1 sequence (P08246 30-247 limits assumed): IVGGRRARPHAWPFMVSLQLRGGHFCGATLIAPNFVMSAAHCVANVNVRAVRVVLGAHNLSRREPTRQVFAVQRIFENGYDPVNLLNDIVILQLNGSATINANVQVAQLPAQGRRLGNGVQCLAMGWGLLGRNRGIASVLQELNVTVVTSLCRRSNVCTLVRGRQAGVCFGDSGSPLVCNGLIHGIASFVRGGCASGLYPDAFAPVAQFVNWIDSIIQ

[2] = system: sol elastase of CF sputum; conditions: unprocessed CF sputum directly treated; cited from earlier work
cancer = conditions: cited from earlier work
[3] = system: relapsed/refractory multiple myeloma; conditions: cited from earlier work
[4] = intravenous; cited from earlier work
[5] = system: COL1A1-PDGFβ-transformed fibroblasts, DFSP and giant-cell fibrosarcoma cell cultures; conditions: in vitro and in vivo; cited from earlier work
newly diagnosed CML = conditions: cytogenetic and haematological response, time to progression; cited from earlier work
[6] = system: primary human fibroblasts; test: PDGF-induced fibroblast proliferation (MTS assay); conditions: for Proliferation (relative proliferation), Short Duration / Proliferation (relative proliferation), Long Duration: 20 ng/mL PDGF-BB, 72 hours, MTS; for inhibiting PDGF-induced fibroblast proliferation (in words) / cytotoxicity of drug concentrations tested: 0.5 to 50 nM; for cytotoxicity of drug concentrations tested: data not shown; for IC50: read-out: fifty-percent inhibitory concentration (IC50), PDGF-induced fibroblast proliferation, short-term exposure
[7] = system: bleomycin-induced pulmonary fibrosis; conditions: both agents from Days 14; cited from earlier work
lung fibroblasts = conditions: 800 μg/ml of AGP, in vitro; cited from earlier work
SCLC = conditions: oral 600 mg daily up to 12 months; cited from earlier work
c-kit = c-kit (Homo sapiens, UniProt P10721); conditions: cited from earlier work
Chain of c-kit (P10721 26-976): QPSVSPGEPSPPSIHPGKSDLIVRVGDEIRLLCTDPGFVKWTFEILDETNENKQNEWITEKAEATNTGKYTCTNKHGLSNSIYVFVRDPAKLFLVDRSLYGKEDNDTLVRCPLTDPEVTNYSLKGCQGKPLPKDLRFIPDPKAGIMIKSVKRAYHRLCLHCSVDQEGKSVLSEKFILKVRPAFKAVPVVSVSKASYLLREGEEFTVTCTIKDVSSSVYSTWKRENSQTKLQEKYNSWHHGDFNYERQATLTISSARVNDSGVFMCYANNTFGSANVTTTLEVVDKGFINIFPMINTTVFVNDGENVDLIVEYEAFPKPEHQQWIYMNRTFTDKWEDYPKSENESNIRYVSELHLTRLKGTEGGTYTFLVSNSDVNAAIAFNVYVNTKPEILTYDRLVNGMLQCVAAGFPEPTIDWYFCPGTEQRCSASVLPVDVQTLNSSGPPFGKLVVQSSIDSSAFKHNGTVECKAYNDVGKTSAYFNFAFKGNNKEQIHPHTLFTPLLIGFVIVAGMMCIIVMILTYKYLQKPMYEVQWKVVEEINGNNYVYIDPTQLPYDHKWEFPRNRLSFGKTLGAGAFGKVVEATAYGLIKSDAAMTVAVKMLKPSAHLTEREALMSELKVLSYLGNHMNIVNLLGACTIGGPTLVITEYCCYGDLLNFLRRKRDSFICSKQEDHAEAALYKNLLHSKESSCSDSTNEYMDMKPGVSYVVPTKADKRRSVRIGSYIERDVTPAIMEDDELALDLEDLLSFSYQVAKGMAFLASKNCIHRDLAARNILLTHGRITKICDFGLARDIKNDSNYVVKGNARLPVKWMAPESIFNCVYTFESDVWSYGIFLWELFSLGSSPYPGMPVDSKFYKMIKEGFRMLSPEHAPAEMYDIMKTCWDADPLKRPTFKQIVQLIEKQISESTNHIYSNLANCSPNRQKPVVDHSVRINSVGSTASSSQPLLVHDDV

[8] = bortezomib 1.3 mg/m2 vs high-dose dexamethasone
[9] = 0.5 nM drug 30 min pretreatment then washed
[10] = 5.0 nM drug 30 min pretreatment then washed
[11] = 50.0 nM drug 30 min pretreatment then washed

## O=C(O)CCCC[C@@H](S)CCS (racemic) [DHLA, dihydrolipoic acid]
[1]
  inhibition of purified human neutrophil elastase (in words): inhibited
[2]
  increase of sol elastase activity: did not increase

## N#CC1(c2ccc(NC(=O)c3cccnc3NCc3ccncc3)cc2)CCCC1 [Apatinib]
cancer; 1000 mg/day
  dose limiting toxicities: 3 of 3
cancer; 65 cancer patients, Phase I/II
  complete response: 1.54%
  partial response: 12.31%
  progressive disease: 20%
  stable disease: 66.15%
cancer; human, in vivo
  maximum tolerated dose: 850 mg/day

## CC(C)C[C@H](NC(=O)[C@H](Cc1ccccc1)NC(=O)c1cnccn1)B(O)O [Bortezomib]
[3]; [8]
  1-year survival: 80%
  median TTP: 6.2 months
[3]; human, in vivo
  patients with peripheral neuropathy: 30%
[4]
  clearance: rapidly cleared
  time to peak concentrations: about 30 minutes

## Cc1ccc(NC(=O)c2ccc(CN3CCN(C)CC3)cc2)cc1Nc1nccc(-c2cccnc2)n1 [Glivec]
[5]
  effect on cells: inhibited
Newly diagnosed CML
  efficacy vs interferon and low-dose cytarabine: superior efficacy

## CNC(=O)c1cc(Oc2ccc(NC(=O)Nc3ccc(Cl)c(C(F)(F)F)c3)cc2)ccn1 [Sorafinib, sorafinib]
[6]; [9]
  Proliferation (relative proliferation), Short Duration: 0.117
[6]; 0.5 nM drug kept in media
  Proliferation (relative proliferation), Long Duration: 0.313
[6]; [10]
  Proliferation (relative proliferation), Short Duration: −0.010
[6]; 5.0 nM drug kept in media
  Proliferation (relative proliferation), Long Duration: 0.175
[6]; [11]
  Proliferation (relative proliferation), Short Duration: −0.147
[6]; 50.0 nM drug kept in media
  Proliferation (relative proliferation), Long Duration: 0.130
[6]
  inhibiting PDGF-induced fibroblast proliferation (in words): dose-responsive
  cytotoxicity of drug concentrations tested: not cytotoxic
  IC50: ~30 nM

## COC(=O)c1ccc2c(c1)NC(=O)/C2=C(\Nc1ccc(N(C)C(=O)CN2CCN(C)CC2)cc1)c1ccccc1 [Vargatef]
[6]; [9]
  Proliferation (relative proliferation), Short Duration: 0.115
[6]; 0.5 nM drug kept in media
  Proliferation (relative proliferation), Long Duration: 0.003
[6]; [10]
  Proliferation (relative proliferation), Short Duration: 0.011
[6]; 5.0 nM drug kept in media
  Proliferation (relative proliferation), Long Duration: −0.359
[6]; [11]
  Proliferation (relative proliferation), Short Duration: −0.175
[6]; 50.0 nM drug kept in media
  Proliferation (relative proliferation), Long Duration: −0.642
[6]
  inhibiting PDGF-induced fibroblast proliferation (in words): dose-responsive
  cytotoxicity of drug concentrations tested: not cytotoxic
  IC50: ~3 nM

## CC[C@H]1OC(=O)[C@H](C)[C@@H](O[C@H]2C[C@@](C)(OC)[C@@H](O)[C@H](C)O2)[C@H](C)[C@@H](O[C@@H]2O[C@H](C)C[C@H](N(C)C)[C@H]2O)[C@](C)(OC)C[C@@H](C)C(=O)[C@H](C)[C@@H](O)[C@]1(C)O [clarithromycin]
[7]
  bleomycin-induced pulmonary fibrosis, combined use with imatinib: attenuated
Lung fibroblasts
  concentration required to abrogate the effects of AGP: > 10 µM

## CC[C@H]1OC(=O)[C@H](C)[C@@H](O[C@H]2C[C@@](C)(OC)[C@@H](O)[C@H](C)O2)[C@H](C)[C@@H](O[C@@H]2O[C@H](C)C[C@H](N(C)C)[C@H]2O)[C@](C)(O)C[C@@H](C)C(=O)[C@H](C)[C@@H](O)[C@]1(C)O [erythromycin]
[7]
  bleomycin-induced pulmonary fibrosis, combined use with imatinib: attenuated
Lung fibroblasts
  concentration required to abrogate the effects of AGP: more than 1 μM

## Cc1ccc(NC(=O)c2ccc(CN3CCN(C)CC3)cc2)cc1Nc1nccc(-c2cccnc2)n1 [imatinib mesylate]
SCLC
  antitumor activity: no observed antitumor activity
c-kit
  signal transduction cascade triggered by c-kit activation: sufficiently blocked

## DNase
[2]
  increase of sol elastase activity: 190%

B1: reduced rhTrx: stable reduced form of recombinant human thioredoxin used as a single component (protein, UniProt P10599 2-105, looked up)
Thioredoxin: VKQIESKTAFQEALDAAGDKLVVVDFSATWCGPCKMIKPFFHSLSEKYSNVIFLEVDVDDCQDVASECEVKCMPTFQFFKKGQKVGEFSGANKEKLEATINELV
modifications: reduced form
[1]
  inhibition of purified human neutrophil elastase (in words): inhibited
[2]
  increase of sol elastase activity: 60%
